# System: Rote Blutkörperchen
# Experiment: Red blood cell test (RBC test): lysis of blood cells and denaturation of released haemoglobin
# Format: cell-based
# Text: Fettsäureamidopropylbetaine, abgeleitet von Fettsäuren unterschiedlicher Kettenlängen, werden mit Hilfe einer in-vitro-Methode, dem Rote-Blutkörperchen-Test (RBC), auf ihre physiologische Verträglichkeit untersucht.
# Hierbei werden zur Charakterisierung der typischen irritativen Wechselbeziehung von Tensiden mit intakten Zellstrukturen die Zerstörung der Blutzellen durch Lyse und die Denaturierung des freigesetzten Hämoglobins gemessen. Das Ergebnis stellt der Quotient aus Lyse (L) und Denaturierung (D) L/D dar. Je kleiner der L/D-Wert ist, desto reizender ist die Substanz bzw. Formulierung einzustufen.
# [1] = Table 1: single betaines, the smaller L/D, the more irritant
# [2] = Table 1: single fatty acid amidopropyl betaines
# [3] = Table 3: 10 % betaine + 5 % APG in water
# [4] = Table 3: 10 % betaine + 5 % LSSDNa in water
# [5] = Table 3: 10 % betaine + 5 % NaLSC in water
Compound,L/D [1],Denaturierung (D) [2],Lyse (L) [2],Denaturierung (D) [3],L/D [3],Lyse (L) [3],Denaturierung (D) [4],L/D [4],Lyse (L) [4],Denaturierung (D) [5],L/D [5],Lyse (L) [5]
CCCCCCCC(=O)NCCC[N+](C)(C)CC(=O)[O-] [C8-Betain],>> 100,keine Hämolyse,keine Hämolyse,–,–,–,–,–,–,–,–,–
CCCCCCCCCC(=O)NCCC[N+](C)(C)CC(=O)[O-] [C10-Betain],>> 100,keine Hämolyse,keine Hämolyse,–,–,–,–,–,–,–,–,–
CCCCCCCCCCCC(=O)NCCC[N+](C)(C)CC(=O)[O-] [C12-Betain],"8,9",17,151,<1,>100,81,13,"3,8",49,18,"4,7",84
CCCCCCCCCCCCCC(=O)NCCC[N+](C)(C)CC(=O)[O-] [C14-Betain],"1,4","9,2",13,–,–,–,–,–,–,–,–,–
CCCCCCCCCCCCCCCC(=O)NCCC[N+](C)(C)CC(=O)[O-] [C16-Betain],"1,0","4,4","4,4",–,–,–,–,–,–,–,–,–
